The target in one assay is Histamine H1 receptor (Homo sapiens, UniProt P35367). The experiment in a line: Selectivity interaction (Panel of kinases, GPCRs, ion channels and transporters (enzymatic assay)) EUB0000266bCl HRH1.
Assay [1] addresses Leukocyte tyrosine kinase receptor (Homo sapiens, UniProt P29376). The experiment in a line: Selectivity interaction (Ambit KINOMEscan and KiNATiv profiling in Jurkat cells) EUB0000090b LTK. As to conditions: at 1 µM. It is filed as cell-based.
Assay [2] concerns the target Serine/threonine-protein kinase N2 (Homo sapiens, UniProt Q16513). The experiment in a line: Selectivity interaction (Ambit KINOMEscan and KiNATiv profiling in Jurkat cells) EUB0000090b PKN2. The assay is classed as cell-based. As to conditions: at 1 µM.
Assay [3] has as its target T1, Alpha-1B adrenergic receptor (Homo sapiens) (UniProt P35368).
T1 sequence (whole entry): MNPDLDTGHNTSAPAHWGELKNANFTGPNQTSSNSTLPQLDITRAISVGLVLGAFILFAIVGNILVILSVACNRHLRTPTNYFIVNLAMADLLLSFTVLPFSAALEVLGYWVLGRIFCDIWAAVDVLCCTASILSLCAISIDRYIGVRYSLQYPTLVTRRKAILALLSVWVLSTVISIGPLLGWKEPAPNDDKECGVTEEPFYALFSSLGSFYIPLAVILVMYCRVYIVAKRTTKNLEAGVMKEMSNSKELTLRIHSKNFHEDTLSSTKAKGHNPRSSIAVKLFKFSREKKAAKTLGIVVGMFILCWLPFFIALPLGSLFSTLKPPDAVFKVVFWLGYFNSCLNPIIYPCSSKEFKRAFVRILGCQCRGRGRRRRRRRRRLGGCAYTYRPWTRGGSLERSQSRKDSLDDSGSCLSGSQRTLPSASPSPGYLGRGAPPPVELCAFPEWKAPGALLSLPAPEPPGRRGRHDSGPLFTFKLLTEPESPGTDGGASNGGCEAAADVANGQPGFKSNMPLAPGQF
The experiment in a line: Selectivity interaction (GPCR panel (PDSP screen)) EUB0001079a ADRA1B. As to conditions: at 10 µM.

Another assay has as its target SRSF protein kinase 1 (Homo sapiens, UniProt Q96SB4). The experiment in a line: Selectivity interaction (KinomeScan (DiscoverX)) EUB0000655a SRPK1. As to conditions: at 10 µM.
For assay [4], the target named is T2, Serine/threonine-protein kinase Nek3 (Homo sapiens) (UniProt P51956).
T2 sequence (whole entry): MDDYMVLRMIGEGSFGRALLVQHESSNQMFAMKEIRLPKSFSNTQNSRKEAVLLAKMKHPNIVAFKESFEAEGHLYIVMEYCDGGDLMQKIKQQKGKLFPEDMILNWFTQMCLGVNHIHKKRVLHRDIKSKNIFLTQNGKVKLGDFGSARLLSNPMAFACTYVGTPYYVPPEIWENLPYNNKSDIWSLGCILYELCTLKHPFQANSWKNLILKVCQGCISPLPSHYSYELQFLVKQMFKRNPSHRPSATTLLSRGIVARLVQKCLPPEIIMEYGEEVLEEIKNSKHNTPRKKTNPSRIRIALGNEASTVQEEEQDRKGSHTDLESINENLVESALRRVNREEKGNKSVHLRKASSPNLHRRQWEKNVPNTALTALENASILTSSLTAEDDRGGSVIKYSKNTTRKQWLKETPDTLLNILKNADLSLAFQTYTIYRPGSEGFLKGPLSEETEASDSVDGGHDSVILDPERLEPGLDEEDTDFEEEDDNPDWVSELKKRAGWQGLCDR
The experiment in a line: Selectivity interaction (KinomeScan (DiscoverX)) EUB0000695a NEK3. As to conditions: at 100 nM.

The target of assay [5] is Cyclin-dependent kinase 16 (Homo sapiens) (UniProt Q00536). As to the kind of experiment: Selectivity interaction (KinomeScan (DiscoverX)) EUB0000045b CDK16.
In assay [6] the target is Serine/threonine-protein kinase PAK 1 (Homo sapiens) (UniProt Q13153). As to the kind of experiment: Selectivity interaction (KinomeScan (DiscoverX)) EUB0000045b PAK1.
In assay [7] the target is T3, Mitogen-activated protein kinase kinase kinase 2 (Homo sapiens) (UniProt Q9Y2U5).
T3 sequence (whole entry): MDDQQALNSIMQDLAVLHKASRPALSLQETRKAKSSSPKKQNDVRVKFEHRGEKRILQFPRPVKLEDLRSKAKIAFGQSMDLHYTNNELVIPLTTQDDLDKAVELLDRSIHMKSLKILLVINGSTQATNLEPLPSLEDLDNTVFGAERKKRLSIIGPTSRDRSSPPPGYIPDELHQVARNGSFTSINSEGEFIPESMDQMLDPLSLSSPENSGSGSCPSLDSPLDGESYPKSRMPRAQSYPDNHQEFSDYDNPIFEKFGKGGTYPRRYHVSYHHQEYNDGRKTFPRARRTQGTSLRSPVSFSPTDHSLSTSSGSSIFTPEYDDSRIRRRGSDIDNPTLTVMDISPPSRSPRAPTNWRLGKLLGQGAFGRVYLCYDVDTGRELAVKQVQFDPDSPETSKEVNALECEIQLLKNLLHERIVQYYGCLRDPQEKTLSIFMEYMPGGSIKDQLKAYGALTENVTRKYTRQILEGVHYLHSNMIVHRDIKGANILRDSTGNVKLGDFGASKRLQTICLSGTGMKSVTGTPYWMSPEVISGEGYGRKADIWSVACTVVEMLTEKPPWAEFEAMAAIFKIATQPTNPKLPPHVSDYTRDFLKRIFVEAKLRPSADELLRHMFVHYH
The experiment in a line: Selectivity interaction (LanthaScreen Eu Kinase Binding Assay) EUB0001632a MAP3K2. As to conditions: at 10 µM.

For assay [8], the target named is Receptor tyrosine-protein kinase erbB-2 (Homo sapiens, UniProt P04626). The experiment in a line: Selectivity interaction (KinomeScan (DiscoverX)) EUB0000607a ERBB2. As to conditions: at 10 µM.
For assay [9], the target named is Tyrosine-protein kinase Srms (Homo sapiens) (UniProt Q9H3Y6). The experiment in a line: Selectivity interaction (SelectScreen profiling (Invitrogen)) EUB0000607a SRMS. As to conditions: at 2 µM.
The target in assay [10] is T4, Dual specificity mitogen-activated protein kinase kinase 6 (Homo sapiens) (UniProt P52564).
T4 sequence (whole entry): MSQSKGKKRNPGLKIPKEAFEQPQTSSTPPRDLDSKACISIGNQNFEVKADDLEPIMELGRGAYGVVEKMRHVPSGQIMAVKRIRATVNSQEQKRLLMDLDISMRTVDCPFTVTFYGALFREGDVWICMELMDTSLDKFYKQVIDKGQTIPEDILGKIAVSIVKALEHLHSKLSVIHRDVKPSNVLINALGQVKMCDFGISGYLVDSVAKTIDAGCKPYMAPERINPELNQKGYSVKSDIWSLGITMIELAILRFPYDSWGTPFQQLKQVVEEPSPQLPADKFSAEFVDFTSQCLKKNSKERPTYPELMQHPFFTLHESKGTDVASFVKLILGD
As to the kind of experiment: Selectivity interaction (Kinase panel (Invitrogen)) EUB0000639a MAP2K6. As to conditions: at 200 nM.

The target of assay [11] is MAP kinase-activated protein kinase 2 (Homo sapiens, UniProt P49137). As to the kind of experiment: Selectivity interaction (KinomeScan (DiscoverX)) EUB0000229b MAPKAPK2. As to conditions: at 10 µM.
In assay [12] the target is Tyrosine-protein kinase Lck (Homo sapiens, UniProt P06239). The experiment in a line: Selectivity interaction (Kinase panel (literature)) EUB0001199aCl LCK. As to conditions: at 1 µM.
Chain of Tyrosine-protein kinase Lck (P06239 2-509 limits assumed): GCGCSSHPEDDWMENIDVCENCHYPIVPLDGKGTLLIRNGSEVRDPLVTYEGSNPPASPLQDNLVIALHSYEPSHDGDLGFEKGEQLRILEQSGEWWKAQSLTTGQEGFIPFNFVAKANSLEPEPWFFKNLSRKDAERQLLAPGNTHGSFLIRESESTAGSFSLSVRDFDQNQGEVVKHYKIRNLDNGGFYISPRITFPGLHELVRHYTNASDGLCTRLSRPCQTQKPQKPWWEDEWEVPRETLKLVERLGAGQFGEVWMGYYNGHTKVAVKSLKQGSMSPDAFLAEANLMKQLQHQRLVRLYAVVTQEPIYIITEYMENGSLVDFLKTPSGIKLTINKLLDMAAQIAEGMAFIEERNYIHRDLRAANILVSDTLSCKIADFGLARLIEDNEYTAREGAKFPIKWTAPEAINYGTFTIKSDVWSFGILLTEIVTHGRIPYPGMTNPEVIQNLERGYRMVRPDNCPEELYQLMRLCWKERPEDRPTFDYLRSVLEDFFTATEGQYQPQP

Chain of Cyclin-dependent kinase 16 (Homo sapiens) (Q00536 whole entry): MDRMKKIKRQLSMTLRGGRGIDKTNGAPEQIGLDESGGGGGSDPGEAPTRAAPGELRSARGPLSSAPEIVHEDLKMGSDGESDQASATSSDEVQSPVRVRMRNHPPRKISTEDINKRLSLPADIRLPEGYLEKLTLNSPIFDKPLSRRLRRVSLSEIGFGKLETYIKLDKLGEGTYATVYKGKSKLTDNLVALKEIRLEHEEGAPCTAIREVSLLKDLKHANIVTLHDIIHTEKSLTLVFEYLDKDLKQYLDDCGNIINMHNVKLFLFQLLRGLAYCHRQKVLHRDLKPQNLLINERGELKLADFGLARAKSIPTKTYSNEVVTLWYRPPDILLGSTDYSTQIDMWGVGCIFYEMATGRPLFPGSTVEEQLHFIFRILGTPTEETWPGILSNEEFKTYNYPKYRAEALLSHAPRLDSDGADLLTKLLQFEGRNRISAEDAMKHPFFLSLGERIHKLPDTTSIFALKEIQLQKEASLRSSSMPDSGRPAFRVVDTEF
Chain of Serine/threonine-protein kinase PAK 1 (Homo sapiens) (Q13153 whole entry): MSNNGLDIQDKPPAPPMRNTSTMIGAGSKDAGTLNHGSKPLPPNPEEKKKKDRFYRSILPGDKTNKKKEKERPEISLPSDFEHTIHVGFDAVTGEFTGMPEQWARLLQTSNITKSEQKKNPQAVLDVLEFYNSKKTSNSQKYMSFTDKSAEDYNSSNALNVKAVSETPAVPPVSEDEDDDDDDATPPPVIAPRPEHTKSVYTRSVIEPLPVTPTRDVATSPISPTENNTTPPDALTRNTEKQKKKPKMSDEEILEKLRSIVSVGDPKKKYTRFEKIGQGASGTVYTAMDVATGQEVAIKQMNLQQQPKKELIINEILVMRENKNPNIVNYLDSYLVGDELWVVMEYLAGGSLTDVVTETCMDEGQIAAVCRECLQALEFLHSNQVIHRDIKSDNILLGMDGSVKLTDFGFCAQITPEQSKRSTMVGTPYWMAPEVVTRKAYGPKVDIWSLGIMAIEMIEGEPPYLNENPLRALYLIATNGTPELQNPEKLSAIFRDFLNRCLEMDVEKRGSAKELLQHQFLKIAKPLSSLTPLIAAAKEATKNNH
Chain of Leukocyte tyrosine kinase receptor (P29376 whole entry): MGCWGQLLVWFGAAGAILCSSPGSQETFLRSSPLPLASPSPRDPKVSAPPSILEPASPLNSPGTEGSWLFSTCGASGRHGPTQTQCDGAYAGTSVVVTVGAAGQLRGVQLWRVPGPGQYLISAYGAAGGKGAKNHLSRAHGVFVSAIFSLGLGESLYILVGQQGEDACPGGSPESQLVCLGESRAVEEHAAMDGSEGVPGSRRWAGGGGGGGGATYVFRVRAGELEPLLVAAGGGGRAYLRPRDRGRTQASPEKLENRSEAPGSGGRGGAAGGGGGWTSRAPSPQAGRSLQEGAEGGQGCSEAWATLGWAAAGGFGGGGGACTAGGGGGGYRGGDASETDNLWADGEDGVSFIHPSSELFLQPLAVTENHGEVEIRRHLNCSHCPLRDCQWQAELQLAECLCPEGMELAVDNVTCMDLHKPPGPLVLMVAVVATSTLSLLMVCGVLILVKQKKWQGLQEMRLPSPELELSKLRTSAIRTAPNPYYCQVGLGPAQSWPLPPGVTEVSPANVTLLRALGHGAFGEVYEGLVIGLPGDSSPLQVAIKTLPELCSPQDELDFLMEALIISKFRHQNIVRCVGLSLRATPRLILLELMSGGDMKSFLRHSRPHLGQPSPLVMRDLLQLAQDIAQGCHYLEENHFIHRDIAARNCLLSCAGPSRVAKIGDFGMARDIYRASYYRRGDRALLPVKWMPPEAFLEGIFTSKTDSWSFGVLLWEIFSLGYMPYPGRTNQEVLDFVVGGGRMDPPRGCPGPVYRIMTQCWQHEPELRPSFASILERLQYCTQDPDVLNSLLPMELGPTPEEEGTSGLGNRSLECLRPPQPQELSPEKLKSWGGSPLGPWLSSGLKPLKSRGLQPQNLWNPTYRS
Chain of Serine/threonine-protein kinase N2 (Q16513 whole entry, looked up): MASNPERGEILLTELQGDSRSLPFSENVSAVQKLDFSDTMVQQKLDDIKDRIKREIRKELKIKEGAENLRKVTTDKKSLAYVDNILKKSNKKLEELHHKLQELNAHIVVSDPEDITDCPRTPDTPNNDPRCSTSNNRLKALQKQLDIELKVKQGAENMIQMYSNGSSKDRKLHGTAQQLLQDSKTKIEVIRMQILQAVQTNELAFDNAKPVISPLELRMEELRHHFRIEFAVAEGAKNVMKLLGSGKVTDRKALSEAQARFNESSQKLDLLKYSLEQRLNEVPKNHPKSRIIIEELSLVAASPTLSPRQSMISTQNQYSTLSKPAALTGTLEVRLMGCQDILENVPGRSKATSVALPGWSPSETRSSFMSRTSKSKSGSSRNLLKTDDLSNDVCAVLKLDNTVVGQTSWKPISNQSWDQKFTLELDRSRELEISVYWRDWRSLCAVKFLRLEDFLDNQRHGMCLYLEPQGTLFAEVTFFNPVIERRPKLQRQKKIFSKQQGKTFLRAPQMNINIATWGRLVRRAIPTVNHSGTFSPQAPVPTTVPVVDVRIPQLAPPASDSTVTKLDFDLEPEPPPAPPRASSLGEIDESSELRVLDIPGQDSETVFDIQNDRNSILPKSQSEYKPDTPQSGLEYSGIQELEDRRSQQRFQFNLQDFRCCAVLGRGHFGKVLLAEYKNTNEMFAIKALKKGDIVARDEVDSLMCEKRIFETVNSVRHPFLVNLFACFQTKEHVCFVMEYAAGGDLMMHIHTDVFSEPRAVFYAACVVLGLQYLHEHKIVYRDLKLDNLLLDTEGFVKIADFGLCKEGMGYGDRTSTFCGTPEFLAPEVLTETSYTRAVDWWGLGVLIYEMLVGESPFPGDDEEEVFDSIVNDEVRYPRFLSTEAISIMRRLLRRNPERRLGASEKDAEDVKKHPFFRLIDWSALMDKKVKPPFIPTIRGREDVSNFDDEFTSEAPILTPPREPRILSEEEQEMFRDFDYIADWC
Chain of Receptor tyrosine-protein kinase erbB-2 (P04626 whole entry): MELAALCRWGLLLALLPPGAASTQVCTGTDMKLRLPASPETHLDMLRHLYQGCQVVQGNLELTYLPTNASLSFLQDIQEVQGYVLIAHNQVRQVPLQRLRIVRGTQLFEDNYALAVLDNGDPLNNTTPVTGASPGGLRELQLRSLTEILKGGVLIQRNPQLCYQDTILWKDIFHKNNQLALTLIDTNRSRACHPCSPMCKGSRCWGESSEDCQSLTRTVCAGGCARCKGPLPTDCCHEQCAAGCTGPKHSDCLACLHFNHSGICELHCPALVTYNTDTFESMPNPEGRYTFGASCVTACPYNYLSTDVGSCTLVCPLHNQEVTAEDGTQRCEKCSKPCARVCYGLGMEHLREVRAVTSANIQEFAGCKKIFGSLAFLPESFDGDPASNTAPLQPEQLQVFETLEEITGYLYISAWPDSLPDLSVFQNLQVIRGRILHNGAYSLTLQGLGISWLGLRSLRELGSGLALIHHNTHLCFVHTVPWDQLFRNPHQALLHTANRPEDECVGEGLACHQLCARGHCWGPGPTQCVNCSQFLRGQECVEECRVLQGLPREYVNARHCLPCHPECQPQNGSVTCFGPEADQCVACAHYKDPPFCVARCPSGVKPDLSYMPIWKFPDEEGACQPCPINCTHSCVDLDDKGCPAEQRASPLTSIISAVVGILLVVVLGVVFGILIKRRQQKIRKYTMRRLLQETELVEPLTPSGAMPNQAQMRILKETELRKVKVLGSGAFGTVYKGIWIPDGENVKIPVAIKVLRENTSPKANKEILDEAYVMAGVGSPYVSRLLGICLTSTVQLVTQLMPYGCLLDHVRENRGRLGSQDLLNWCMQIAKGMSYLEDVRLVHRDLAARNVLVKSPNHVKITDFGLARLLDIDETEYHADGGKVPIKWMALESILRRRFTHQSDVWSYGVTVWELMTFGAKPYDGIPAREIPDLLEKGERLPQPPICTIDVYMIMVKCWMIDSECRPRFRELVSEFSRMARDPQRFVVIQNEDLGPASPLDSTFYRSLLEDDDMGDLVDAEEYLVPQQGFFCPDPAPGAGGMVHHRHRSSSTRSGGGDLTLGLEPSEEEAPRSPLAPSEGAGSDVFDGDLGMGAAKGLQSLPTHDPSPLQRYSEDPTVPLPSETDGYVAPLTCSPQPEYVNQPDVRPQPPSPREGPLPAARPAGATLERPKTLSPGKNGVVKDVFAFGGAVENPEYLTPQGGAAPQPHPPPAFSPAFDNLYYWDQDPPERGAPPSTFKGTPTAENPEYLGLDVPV
Chain of MAP kinase-activated protein kinase 2 (P49137 whole entry, looked up): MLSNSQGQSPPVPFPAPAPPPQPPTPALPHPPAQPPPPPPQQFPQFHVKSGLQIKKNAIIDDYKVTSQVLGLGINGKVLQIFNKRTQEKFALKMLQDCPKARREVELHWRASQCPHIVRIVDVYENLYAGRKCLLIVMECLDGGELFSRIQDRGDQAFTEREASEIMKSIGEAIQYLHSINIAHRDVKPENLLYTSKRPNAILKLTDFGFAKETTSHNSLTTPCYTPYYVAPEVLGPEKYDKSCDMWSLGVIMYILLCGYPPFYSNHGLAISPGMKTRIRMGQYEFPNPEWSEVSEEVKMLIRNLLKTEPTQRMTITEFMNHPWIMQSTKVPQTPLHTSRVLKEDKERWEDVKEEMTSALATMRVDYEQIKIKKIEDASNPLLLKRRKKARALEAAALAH

As to `CCn1c(-c2nc3cc(C(=O)N4CCCC(N)C4)ccc3n2C)cc2ccccc21` (stereo unspecified), at Histamine H1 receptor, the pXC50 is under 4.4 M.
Turning to `CN(C)C/C=C/C(=O)Nc1ccc(C(=O)N2CCCC(Nc3ncc(Cl)c(-c4c[nH]c5ccccc45)n3)C2)cc1` (stereo unspecified), the % of control in [1] is 84%; in assay [2], 98%.
As for `Nc1cnc(N2CCc3cc(S(=O)(=O)Nc4c(F)cc(Cl)cc4F)cc(N4CCCC4=O)c32)nc1` [TP-020n], the % of inhibition in assay [3] was 4.68%.
`CN(C)CCOc1ccc(-c2nc(-c3ccncc3)c(-c3ccc4c(c3)CC/C4=N\O)[nH]2)cc1` displayed a % of control at SRSF protein kinase 1 of 86%.
For `Cc1cc(F)c(C(=O)Nc2cccc(-c3nncn3C(C)C)n2)cc1-n1cnc(C2CC2)c1`, the % of control in [4] amounted to 84%.
`C=CC(=O)Nc1cc(-n2c(=O)ccc3cnc4ccc(-c5ccc(NS(C)(=O)=O)cc5)cc4c32)ccc1C`: the % of control in assay [5] (at 1 µM) came to 100%; in [5] (at 10 µM) it was 100%; in assay [6] (at 1 µM) it was 86%; in [6] (at 10 µM), 62%.
Regarding `Cn1cc(-n2cnc3c(NCc4nc5cc(Cl)c(Cl)cc5[nH]4)nc(N4CCOCC4)nc32)cn1`, the % of inhibition in assay [7] is -3.79%.
Regarding `CNC(=O)Nc1ccc(-c2nc(N3CC4CCC(C3)O4)c3cnn(C4CCC5(CC4)OCCO5)c3n2)cc1`, the % of control in assay [8] was found to be 88%. Besides, in [9], the % of inhibition came out at 7%.
For `CC[C@@H]1[C@H](F)C(=O)N[C@@H]1COc1nccc2cc(C(N)=O)c(OC)cc12` [ZIMLOVISERTIB], the % of inhibition in [10] stood at 4.3%.
As to `COc1cc(N(C)c2ccnc3ccc(C(F)(F)F)cc23)cc(OC)c1OC`, in [11], the % binding was 93%.
As to `CN1Cc2nccc(-c3cn(C)nc3-c3ccc(F)cc3)c2C1=O`, the % of inhibition in assay [12] is 7%.
